Data as given in PMC12420824, “Discovery of a selective alpha-kinase 1 inhibitor for the rare genetic disease ROSAH syndrome” (Nature Communications, 2025).
Values joined by “and” are separate entries in the source; they are usually repeats but may differ in a detail not shown here. Identical values can stand only once.

Legend:
AMPK(A2/B2/G1) = AMPK(A2/B2/G1) (Homo sapiens, UniProt P54646); assay: HotSpot kinase assay; details: read-out: % Enzyme Activity (relative to DMSO control), 10 uM
ALK3/BMPR1A = ALK3/BMPR1A (Homo sapiens, UniProt P36894); assay: HotSpot kinase assay; details: read-out: % Enzyme Activity (relative to DMSO control), 10 uM
Description: (§1) Additionally, a 10-dose dilution series of staurosporine and other enzyme-appropriate compounds were included as positive control inhibitors.

MEK3 = MEK3 (Homo sapiens, UniProt P46734); assay: HotSpot kinase assay; details: read-out: % Enzyme Activity (relative to DMSO control), 10 uM
SIK3 = SIK3 (Homo sapiens, UniProt Q9Y2K2); assay: HotSpot kinase assay; details: read-out: % Enzyme Activity (relative to DMSO control), 10 uM
Description: as §1

YSK4/MAP3K19 = YSK4/MAP3K19 (Homo sapiens, UniProt Q56UN5); assay: HotSpot kinase assay; details: read-out: % Enzyme Activity (relative to DMSO control), 10 uM
Description: as §1

MYO3b = MYO3b (Homo sapiens, UniProt Q8WXR4); assay: HotSpot kinase assay; details: read-out: % Enzyme Activity (relative to DMSO control), 10 uM
CDK5/P25 = CDK5/P25 (Homo sapiens, UniProt Q00535); assay: HotSpot kinase assay; details: read-out: % Enzyme Activity (relative to DMSO control), 10 uM
Description: as §1

DRAK1/STK17A = DRAK1/STK17A (Homo sapiens, UniProt Q9UEE5); assay: HotSpot kinase assay; details: read-out: % Enzyme Activity (relative to DMSO control), 10 uM
SIK1 = SIK1 (Homo sapiens, UniProt P57059); assay: HotSpot kinase assay; details: read-out: % Enzyme Activity (relative to DMSO control), 10 uM
MAPKAPK3 = MAPKAPK3 (Homo sapiens, UniProt Q16644); assay: HotSpot kinase assay; details: read-out: % Enzyme Activity (relative to DMSO control), 10 uM
Description: as §1

GRK6 = GRK6 (Homo sapiens, UniProt P43250); assay: HotSpot kinase assay; details: read-out: % Enzyme Activity (relative to DMSO control), 10 uM
Description: as §1

DNA-PK = DNA-PK (Homo sapiens, UniProt P78527); assay: HotSpot kinase assay; details: read-out: % Enzyme Activity (relative to DMSO control), 10 uM
Description: as §1

[1] = Pharmacokinetic analyses, oral once daily for 10 days; details: for CAVG: 10th daily dose; for concentration at 0 h / concentration at 0.5 h / concentration at 1 h / concentration at 2 h / concentration at 4 h / concentration at 6 h / concentration at 8 h / concentration at 12 h / concentration at 24 h / AUC / CL/F / Cmax / Tmax / Vd/F / half-life: male, C57BL/6J, mouse, plasma; for concentration at 0 h / concentration at 0.5 h / concentration at 1 h / concentration at 2 h / concentration at 4 h / concentration at 6 h / concentration at 8 h / concentration at 12 h / concentration at 24 h: oral, DF-003 Conc. in plasma; for concentration at 0 h: 0 hours after 10th dosing; for concentration at 0.5 h: 0.5 hours after 10th dosing; for concentration at 1 h: 1 hour after 10th dosing; for concentration at 2 h: 2 hours after 10th dosing; for concentration at 4 h: 4 hours after 10th dosing; for concentration at 6 h: 6 hours after 10th dosing; for concentration at 8 h: 8 hours after 10th dosing; for concentration at 12 h: 12 hours after 10th dosing; for concentration at 24 h: 24 hours after 10th dosing; for AUC / CL/F / Cmax / Tmax / Vd/F / half-life: po
Protocol: Mice were housed in a specific pathogen-free (SPF) animal facility at Drug Farm (Shanghai, China) in individually ventilated cages on a 12 h light/dark cycle with a bedding of wood shavings and ad libitum access to rodent chow. […] Six 8 week-old male C57BL/6J mice from Zhejiang Vital River Laboratory Animal Technology Co., Ltd. (Zhejiang, China) were randomly assigned to 2 groups (3 animals/group). […] The oral dosing volume for all animals was 10 mL/kg body weight. Drinking water and certified rodent diet were available to animals ad libitum, except that animals were fasted 16 h prior to the last administration until 4 h after the last dosing. Blood samples at 0 (right before the last dosing), 0.5, 1, 2, 4, 6, 8, 12, and 24 h after the 10th dosing were collected from the tail vein and transferred into tubes containing K2-EDTA. The tubes were gently inverted several times to ensure mixing and immediately placed on wet ice. Plasma was obtained by centrifugation at 3200 × g at 4 °C for 10 min and stored at ≤ -60 °C until subsequent analysis. Twenty-four hours after the 10th dosing, the animals were euthanized by CO2 inhalation.

TAOK2/TAO1 = biological target: T1, TAOK2/TAO1 (Homo sapiens, UniProt Q9UL54); assay: HotSpot kinase assay; details: for IC50: ATP 10 µM
T1 sequence (Q9UL54 1-1235): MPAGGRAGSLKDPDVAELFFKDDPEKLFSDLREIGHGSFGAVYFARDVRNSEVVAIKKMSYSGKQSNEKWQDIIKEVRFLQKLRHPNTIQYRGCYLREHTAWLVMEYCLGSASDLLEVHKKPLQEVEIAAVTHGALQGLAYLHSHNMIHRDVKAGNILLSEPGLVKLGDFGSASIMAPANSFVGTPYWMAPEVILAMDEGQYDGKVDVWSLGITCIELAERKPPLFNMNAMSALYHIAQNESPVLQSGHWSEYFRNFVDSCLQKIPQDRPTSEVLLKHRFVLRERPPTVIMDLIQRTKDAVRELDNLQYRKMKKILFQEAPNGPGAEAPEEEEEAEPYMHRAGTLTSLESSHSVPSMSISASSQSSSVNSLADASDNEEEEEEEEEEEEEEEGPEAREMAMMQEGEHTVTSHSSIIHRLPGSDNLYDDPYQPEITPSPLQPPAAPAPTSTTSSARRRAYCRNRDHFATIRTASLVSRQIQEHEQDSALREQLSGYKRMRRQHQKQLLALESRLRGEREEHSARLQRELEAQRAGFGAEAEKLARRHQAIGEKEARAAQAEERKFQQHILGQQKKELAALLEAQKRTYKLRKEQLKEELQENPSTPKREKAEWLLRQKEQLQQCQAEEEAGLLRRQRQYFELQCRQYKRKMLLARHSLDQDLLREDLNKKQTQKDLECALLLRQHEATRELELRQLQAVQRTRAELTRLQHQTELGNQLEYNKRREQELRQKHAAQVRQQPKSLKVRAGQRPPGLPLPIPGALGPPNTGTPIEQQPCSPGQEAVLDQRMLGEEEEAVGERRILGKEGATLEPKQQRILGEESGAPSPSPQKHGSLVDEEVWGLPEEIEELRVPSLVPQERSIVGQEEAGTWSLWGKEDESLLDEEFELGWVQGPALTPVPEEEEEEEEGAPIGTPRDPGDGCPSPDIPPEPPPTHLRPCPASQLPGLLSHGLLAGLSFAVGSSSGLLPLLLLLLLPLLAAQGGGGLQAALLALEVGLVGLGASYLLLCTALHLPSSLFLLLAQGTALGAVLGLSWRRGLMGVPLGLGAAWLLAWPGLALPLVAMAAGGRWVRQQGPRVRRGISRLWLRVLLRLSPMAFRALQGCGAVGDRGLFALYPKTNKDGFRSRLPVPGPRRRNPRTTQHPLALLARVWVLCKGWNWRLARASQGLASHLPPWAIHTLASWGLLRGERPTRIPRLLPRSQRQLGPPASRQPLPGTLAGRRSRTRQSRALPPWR
Description: as §1

MAPKAPK5/PRAK = MAPKAPK5/PRAK (Homo sapiens, UniProt Q8IW41); assay: HotSpot kinase assay; details: read-out: % Enzyme Activity (relative to DMSO control), 10 uM
FGR = FGR (Homo sapiens, UniProt P09769); assay: HotSpot kinase assay; details: read-out: % Enzyme Activity (relative to DMSO control), 10 uM
Description: as §1

[2] = 3 mg/kg, 3 mg/kg, individual animals
[3] = 5 mg/kg, 5 mg/kg, individual animals

MEK3, sequence (P46734 whole entry): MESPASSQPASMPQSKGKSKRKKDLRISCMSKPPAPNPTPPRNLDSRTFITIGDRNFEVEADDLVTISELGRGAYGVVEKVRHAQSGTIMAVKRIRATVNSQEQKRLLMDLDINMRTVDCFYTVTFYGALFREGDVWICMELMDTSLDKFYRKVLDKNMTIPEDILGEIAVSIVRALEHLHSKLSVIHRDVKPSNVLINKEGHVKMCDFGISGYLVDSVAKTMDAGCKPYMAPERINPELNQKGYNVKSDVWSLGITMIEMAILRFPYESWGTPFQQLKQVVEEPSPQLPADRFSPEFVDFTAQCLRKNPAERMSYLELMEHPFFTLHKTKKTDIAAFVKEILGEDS
MAPKAPK5/PRAK, sequence (Q8IW41 whole entry): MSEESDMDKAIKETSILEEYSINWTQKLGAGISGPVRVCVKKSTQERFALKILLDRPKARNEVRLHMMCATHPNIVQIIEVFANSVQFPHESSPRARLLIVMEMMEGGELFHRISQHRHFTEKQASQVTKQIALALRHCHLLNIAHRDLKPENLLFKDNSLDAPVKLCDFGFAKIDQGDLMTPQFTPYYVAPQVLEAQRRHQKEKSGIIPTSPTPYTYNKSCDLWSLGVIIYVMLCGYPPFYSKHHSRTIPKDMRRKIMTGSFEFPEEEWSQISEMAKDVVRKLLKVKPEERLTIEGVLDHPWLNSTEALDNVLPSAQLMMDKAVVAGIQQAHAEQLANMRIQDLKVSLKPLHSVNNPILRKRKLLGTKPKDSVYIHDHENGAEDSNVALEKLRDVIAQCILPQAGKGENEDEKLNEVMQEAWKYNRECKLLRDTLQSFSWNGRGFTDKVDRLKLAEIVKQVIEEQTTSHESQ
GRK6, sequence (P43250 whole entry): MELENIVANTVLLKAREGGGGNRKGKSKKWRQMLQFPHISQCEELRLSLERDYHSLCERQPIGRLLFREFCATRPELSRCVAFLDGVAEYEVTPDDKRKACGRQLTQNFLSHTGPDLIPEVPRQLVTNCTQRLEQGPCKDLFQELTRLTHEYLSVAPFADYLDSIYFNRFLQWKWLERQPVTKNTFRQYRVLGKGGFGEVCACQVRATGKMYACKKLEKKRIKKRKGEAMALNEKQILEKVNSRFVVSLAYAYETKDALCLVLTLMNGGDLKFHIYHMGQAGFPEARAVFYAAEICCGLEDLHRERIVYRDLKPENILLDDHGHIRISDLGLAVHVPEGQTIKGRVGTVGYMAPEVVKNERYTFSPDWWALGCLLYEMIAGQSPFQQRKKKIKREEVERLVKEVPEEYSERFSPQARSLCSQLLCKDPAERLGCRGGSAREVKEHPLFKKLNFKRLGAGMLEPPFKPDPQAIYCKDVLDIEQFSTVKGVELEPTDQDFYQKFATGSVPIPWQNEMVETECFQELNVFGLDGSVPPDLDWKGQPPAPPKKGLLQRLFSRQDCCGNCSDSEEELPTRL
ALK3/BMPR1A, sequence (P36894 24-532): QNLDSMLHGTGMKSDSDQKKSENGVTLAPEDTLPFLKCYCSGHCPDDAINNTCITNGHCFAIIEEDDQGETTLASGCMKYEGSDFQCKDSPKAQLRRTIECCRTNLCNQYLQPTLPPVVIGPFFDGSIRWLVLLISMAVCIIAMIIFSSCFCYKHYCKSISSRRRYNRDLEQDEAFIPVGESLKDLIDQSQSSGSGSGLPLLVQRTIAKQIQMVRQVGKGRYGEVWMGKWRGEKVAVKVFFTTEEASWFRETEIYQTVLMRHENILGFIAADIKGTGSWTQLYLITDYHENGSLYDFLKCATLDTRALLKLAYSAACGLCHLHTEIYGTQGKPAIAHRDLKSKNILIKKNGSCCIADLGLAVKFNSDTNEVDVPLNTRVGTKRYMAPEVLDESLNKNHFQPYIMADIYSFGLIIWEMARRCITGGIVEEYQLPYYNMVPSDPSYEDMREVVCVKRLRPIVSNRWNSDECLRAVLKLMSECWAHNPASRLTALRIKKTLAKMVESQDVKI
CDK5/P25, sequence (Q00535 whole entry): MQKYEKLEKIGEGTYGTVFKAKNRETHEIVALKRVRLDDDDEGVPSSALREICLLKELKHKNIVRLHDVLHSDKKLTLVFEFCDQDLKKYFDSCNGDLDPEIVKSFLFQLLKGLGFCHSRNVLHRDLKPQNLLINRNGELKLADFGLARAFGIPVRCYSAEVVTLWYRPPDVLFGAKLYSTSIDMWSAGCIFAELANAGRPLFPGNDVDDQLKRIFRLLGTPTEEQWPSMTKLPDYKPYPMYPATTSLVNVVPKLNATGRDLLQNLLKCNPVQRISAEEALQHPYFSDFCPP
CDK5/P25, sequence (Q15078 99-307 partner limits assumed): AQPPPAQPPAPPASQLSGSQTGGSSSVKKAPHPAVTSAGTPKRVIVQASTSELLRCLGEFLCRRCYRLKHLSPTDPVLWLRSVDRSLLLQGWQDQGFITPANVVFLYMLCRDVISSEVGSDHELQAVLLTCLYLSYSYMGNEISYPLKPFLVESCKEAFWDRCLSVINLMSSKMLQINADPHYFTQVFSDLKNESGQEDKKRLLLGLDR
YSK4/MAP3K19, sequence (Q56UN5 whole entry): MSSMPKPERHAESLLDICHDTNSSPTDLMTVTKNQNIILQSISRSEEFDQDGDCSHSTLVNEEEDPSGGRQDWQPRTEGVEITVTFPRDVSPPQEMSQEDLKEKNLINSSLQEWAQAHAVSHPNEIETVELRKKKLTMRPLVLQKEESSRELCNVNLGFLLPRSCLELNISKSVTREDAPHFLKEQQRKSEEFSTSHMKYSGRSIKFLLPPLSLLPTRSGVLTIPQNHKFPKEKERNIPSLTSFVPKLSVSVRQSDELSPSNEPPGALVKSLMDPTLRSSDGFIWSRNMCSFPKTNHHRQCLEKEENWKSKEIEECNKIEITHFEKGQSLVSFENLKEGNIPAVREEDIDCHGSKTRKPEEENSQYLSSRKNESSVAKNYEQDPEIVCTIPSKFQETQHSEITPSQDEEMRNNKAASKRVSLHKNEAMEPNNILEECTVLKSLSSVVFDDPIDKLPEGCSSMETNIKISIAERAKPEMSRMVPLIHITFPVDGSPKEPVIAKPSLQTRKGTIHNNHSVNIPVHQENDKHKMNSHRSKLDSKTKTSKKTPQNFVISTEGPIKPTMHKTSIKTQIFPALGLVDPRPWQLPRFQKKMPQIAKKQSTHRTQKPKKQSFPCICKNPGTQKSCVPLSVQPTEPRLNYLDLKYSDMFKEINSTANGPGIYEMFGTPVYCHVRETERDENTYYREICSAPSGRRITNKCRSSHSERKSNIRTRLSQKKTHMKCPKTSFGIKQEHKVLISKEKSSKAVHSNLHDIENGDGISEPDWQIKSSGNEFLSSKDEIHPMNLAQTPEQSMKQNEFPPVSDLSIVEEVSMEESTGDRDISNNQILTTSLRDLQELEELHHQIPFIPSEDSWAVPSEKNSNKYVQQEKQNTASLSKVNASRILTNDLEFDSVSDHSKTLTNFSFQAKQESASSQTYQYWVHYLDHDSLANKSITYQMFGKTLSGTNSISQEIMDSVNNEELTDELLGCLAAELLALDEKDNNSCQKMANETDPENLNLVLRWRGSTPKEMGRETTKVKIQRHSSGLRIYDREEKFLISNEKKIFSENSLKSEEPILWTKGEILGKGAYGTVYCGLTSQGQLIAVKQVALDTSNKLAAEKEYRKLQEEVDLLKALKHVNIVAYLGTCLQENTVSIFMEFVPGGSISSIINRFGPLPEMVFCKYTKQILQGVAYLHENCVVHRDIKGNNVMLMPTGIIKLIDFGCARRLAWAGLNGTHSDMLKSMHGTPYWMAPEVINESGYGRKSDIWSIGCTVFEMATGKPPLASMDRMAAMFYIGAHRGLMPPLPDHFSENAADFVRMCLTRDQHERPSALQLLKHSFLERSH
SIK1, sequence (P57059 whole entry): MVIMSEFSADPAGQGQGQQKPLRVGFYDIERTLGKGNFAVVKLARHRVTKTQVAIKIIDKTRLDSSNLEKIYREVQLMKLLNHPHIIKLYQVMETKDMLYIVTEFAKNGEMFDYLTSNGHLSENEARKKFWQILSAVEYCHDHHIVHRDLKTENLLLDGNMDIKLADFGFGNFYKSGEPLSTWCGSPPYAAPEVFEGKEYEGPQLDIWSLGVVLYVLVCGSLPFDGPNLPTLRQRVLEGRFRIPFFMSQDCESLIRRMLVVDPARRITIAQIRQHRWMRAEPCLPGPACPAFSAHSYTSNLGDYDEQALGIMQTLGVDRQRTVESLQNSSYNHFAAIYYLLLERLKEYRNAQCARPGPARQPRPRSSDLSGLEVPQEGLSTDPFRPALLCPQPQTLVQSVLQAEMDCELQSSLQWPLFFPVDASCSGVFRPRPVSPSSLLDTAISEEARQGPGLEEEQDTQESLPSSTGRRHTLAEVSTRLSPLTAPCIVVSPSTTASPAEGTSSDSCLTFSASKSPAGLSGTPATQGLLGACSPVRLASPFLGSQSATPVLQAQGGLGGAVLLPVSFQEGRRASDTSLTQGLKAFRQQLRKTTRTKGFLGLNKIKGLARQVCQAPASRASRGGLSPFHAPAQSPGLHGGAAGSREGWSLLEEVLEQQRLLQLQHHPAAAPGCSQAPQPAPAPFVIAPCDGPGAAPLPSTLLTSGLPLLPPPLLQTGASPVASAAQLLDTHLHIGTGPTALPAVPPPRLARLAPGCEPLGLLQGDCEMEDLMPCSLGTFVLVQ
DRAK1/STK17A, sequence (Q9UEE5 whole entry): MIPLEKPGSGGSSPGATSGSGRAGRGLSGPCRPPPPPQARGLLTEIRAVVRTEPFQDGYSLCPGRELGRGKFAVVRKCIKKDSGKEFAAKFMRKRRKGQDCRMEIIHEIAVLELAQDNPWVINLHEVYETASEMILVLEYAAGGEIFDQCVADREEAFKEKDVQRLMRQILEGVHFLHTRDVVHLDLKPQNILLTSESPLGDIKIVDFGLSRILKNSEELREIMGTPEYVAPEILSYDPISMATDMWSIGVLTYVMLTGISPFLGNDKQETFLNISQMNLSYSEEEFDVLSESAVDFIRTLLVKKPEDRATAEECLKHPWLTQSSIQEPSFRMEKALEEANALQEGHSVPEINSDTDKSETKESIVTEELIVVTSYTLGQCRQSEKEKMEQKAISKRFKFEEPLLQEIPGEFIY

C#C[C@@](C)(c1ccc(Cl)cc1)c1csc(NC(=O)c2c(F)cc(N3CCNCC3)cc2F)n1 (stereo in doubt) [DF-003]
remaining activity at 10 µM (AMPK(A2/B2/G1)): 90.2% | remaining activity at 10 µM (ALK3/BMPR1A): 103% | remaining activity at 10 µM (MEK3): 87% | remaining activity at 10 µM (SIK3): 79.6% | remaining activity at 10 µM (YSK4/MAP3K19): 100% | remaining activity at 10 µM (MYO3b): 94.4% | remaining activity at 10 µM (CDK5/P25): 98.6% | remaining activity at 10 µM (DRAK1/STK17A): 12.7% | remaining activity at 10 µM (SIK1): 99.8% | remaining activity at 10 µM (MAPKAPK3): 112% | remaining activity at 10 µM (GRK6): 117% | remaining activity at 10 µM (DNA-PK): 85.3% | CAVG ([1]; 3 mg/kg oral): 75.6 ± 5.53 ng/mL | CAVG ([1]; 5 mg/kg oral): 164 ± 29.0 ng/mL | average time to Cmax (Tmax) ([1]; 3 and 5 mg/kg oral, 10th dose): 2 to 2.67 h | DF-003 Conc. in tissues 24 hr after 10th dosing ([1]; Cerebral Cortex, 3 mg/kg, individual animals): 1358 and 1241 and 1263 | DF-003 Conc. in tissues 24 hr after 10th dosing ([1]; Cerebral Cortex, 5 mg/kg, individual animals): 2520 and 2846 and 2696 | DF-003 Conc. in tissues 24 hr after 10th dosing ([1]; Optic Nerve, 3 mg/kg, 6 optic nerves from 3 mice of same dosing group combined into one sample): 1104 | DF-003 Conc. in tissues 24 hr after 10th dosing ([1]; Optic Nerve, 5 mg/kg, 6 optic nerves from 3 mice of same dosing group combined into one sample): 1615 | DF-003 Conc. in tissues 24 hr after 10th dosing ([1]; Retina, 3 mg/kg, individual animals): 620 and 646 and 1356 | DF-003 Conc. in tissues 24 hr after 10th dosing ([1]; Retina, 5 mg/kg, individual animals): 1351 and 1933 and 1171 | concentration at 0 h [1, 2]: 46.4 ng/mL | concentration at 0.5 h [1, 2]: 78.6 ng/mL | concentration at 1 h [1, 2]: 110 ng/mL | concentration at 2 h [1, 2]: 123 ng/mL | concentration at 4 h [1, 2]: 115 ng/mL | concentration at 6 h [1, 2]: 92 ng/mL | concentration at 8 h [1, 2]: 99.9 ng/mL | concentration at 12 h [1, 2]: 73.9 ng/mL | concentration at 24 h [1, 2]: 19.5 ng/mL | concentration at 0 h [1, 3]: 142 ng/mL | concentration at 0.5 h [1, 3]: 168 ng/mL | concentration at 1 h [1, 3]: 228 ng/mL | concentration at 2 h [1, 3]: 218 ng/mL | concentration at 4 h [1, 3]: 238 ng/mL | concentration at 6 h [1, 3]: 174 ng/mL | concentration at 8 h [1, 3]: 162 ng/mL | concentration at 12 h [1, 3]: 122 ng/mL | concentration at 24 h [1, 3]: 45.6 ng/mL | AUC ([1]; 3 mg/kg): 1820 ± 132 ng·h/mL | CL/F ([1]; 3 mg/kg): 27.6 ± 1.94 mL/min/kg | Cmax ([1]; 3 mg/kg): 160 ng/mL | Tmax ([1]; 3 mg/kg): 2 h | Vd/F ([1]; 3 mg/kg): 18.3 ± 1.55 L/kg | half-life ([1]; 3 mg/kg): 7.69 h | AUC ([1]; 5 mg/kg): 3940 ± 697 ng·h/mL | CL/F ([1]; 5 mg/kg): 21.6 ± 4.11 mL/min/kg | Cmax ([1]; 5 mg/kg): 310 ng/mL | Tmax ([1]; 5 mg/kg): 2.67 ± 1.15 h | Vd/F ([1]; 5 mg/kg): 16.5 ± 3.68 L/kg | half-life ([1]; 5 mg/kg): 8.81 h | IC50 (TAOK2/TAO1; DF-003 IC50 (nM), 10-dose): 1290 nM | IC50 (TAOK2/TAO1; IC50, 10-dose): 1290 nM | remaining activity at 10 µM (TAOK2/TAO1; read-out: % Enzyme Activity (relative to DMSO control), 10 uM): 5.89% | remaining activity at 10 µM (MAPKAPK5/PRAK): 93% | remaining activity at 10 µM (FGR): 97.8%
